Assay results as given in patent US5621102A, “Process for preparing enantiomerically pure xanthine derivatives” (Cell Therapeutics, Inc., priority 1995, dated 1997).

How the values were obtained:
smooth muscle cells = experiment: smooth muscle proliferation stimulated by PDGF and IL-1; format: cell-based; conditions: drug added two hours prior to activation
Text: CT1501R and PTX were separately added to the cells two hours prior to activation with PDGF and IL-1.

[1] = test system: PBMC (peripheral blood mononuclear cells); experiment: two-way mixed lymphocyte reaction (MLR); format: cell-based, human
Text: Various in vitro assays can be used to measure effects of the inventive compounds to module immune activity and have antitumor activity using a variety of cellular types. For example, a mixed lymphocyte reaction (MLR) provides a valuable screening tool to determine biological activity of each inventive compound. In the MLR, PBMCs (peripheral blood mononuclear cells) are obtained by drawing whole blood from healthy volunteers in a heparinized container and diluted with an equal volume of hanks balanced salt solution (HBSS). This mixture is layered on a sucrose density gradient, such as a Ficoll-Hypaque® gradient (specific gravity 1.08), and centrifuged at 1000×g for 25 minutes at room temperature or cooler. PBMC are obtained from a band at a plasma-Ficoll interface, separated and washed at least twice in a saline solution, such as HBSS. Contaminating red cells are lysed, such as by ACK lysis for 10 min at 37° C., and the PBMCs are washed twice in HBSS. The pellet of purified PBMCs is resuspended in complete medium, such as RPMI 1640 plus 20% human inactivated serum. Proliferative response of PBMC to allogeneic stimulation is determined in a two-way MLR performed in a 96-well microliter plate. […] At the conclusion of the incubation tritiated thymidine is added (for example, 1 μCi/well of 40 to 60 Ci/mmole) and proliferation determined by liquid scintillation counting. […]

[2] = test system: hair follicles of nu/nu mice; experiment: nude mouse hair studies, topical application; format: in vivo; conditions: second experiment; 60% ETOH, 10% water, 30% PEG base, twice daily, 34 days
Text: This example illustrates nude mouse hair studies involving topical application of CT1501R. Six to eight week old, female, nu/nu mice from Charles River Laboratories were housed at Biosupport Research Support Services (Seattle, Wash.) in autoclaved micro isolator units with hyperchlorinated autoclaved water, irradiated rodent chow and kept under a laminar flow hood. Caging was changed weekly, and water was changed twice weekly. The mice were acclimated for 5 days before beginning each study.
The first topical formulation was prepared by adding CT1501R to a heated hydrophilic ointment (USP) at a 1% concentration, and allowed to solidify.
Nude mice were painted twice daily for 16 days with the first topical formulation of CT1501R on the left flank and another compound in the same base on the right flank with sterile applicators. Mice were handled under the laminar flow hood with applicator wearing face mask and sterile gloves. After 16 days, one mouse was sacrificed by cervical dislocation and skin biopsies were taken of the treated areas of the shoulder/flank and from the non-treated area of the dorsal pelvis (rump). Specimens were placed in 10% buffered formalin solution. Biopsies were sent to a veterinary dermopathologist for histopathology. Six weeks following treatment, a second mouse was euthanatized and biopsied the same as the first. Samples were sent for histopathology.
In a second experiment, topical application of CT1501R was performed along with a commercial topical minoxidil preparation (Rogaine®, Upjohn) that is approved for a hair growth indication. Five to six week old, female, nu/nu mice from Bantin and Kingman Universal were housed at Biosupport Research Support Services (Seattle, Wash.) in autoclaved micro isolator units with hyper chlorinated autoclaved water, irradiated rodent chow and kept under a laminar flow hood. Caging was changed weekly, and water was changed twice weekly. Mice were acclimated for 7 days before beginning study, […]

Structure (SMILES) | inhibition of smooth muscle cell proliferation (smooth muscle cells) | proliferative response of PBMC to allogeneic stimulation [1] | hair follicles, subjective histopathological examination [2]
CC(=O)CCCCn1c(=O)c2c(ncn2C)n(C)c1=O [PTX, 1-(5-oxohexyl)-3,7-dimethylxanthine, reference compound] | inhibited smooth muscle cell proliferation at the higher doses tested | showed dose-response activity | –
Nc1cc(N2CCCCC2)nc(N)[n+]1[O-] [minoxidil, reference compound] | – | – | fair response to treatment
